From US8431376B2, “Bacterial replication systems and methods” (priority 2004, dated 2013)

Key:
Type in all cases: biochemical
[1] = target: S. pyogenes DNA polymerase holoenzyme (PolC, tau-complex, β) (Streptococcus pyogenes, UniProt Q8NZB5); conditions: read-out: IC50 S. pyog.
[2] = target: Y. pestis DNA polymerase III holoenzyme (Yersinia pestis, UniProt Q0WHY6); conditions: read-out: IC50 Y. pestis
[3] = target: Pol III holoenzyme; conditions: read-out: low μM activity as Pol III holoenzyme inhibitor
[4] = target: Y. pestis DNA polymerase III holoenzyme

Chain of S. pyogenes DNA polymerase holoenzyme (PolC, tau-complex, β) (Q8NZB5 whole entry): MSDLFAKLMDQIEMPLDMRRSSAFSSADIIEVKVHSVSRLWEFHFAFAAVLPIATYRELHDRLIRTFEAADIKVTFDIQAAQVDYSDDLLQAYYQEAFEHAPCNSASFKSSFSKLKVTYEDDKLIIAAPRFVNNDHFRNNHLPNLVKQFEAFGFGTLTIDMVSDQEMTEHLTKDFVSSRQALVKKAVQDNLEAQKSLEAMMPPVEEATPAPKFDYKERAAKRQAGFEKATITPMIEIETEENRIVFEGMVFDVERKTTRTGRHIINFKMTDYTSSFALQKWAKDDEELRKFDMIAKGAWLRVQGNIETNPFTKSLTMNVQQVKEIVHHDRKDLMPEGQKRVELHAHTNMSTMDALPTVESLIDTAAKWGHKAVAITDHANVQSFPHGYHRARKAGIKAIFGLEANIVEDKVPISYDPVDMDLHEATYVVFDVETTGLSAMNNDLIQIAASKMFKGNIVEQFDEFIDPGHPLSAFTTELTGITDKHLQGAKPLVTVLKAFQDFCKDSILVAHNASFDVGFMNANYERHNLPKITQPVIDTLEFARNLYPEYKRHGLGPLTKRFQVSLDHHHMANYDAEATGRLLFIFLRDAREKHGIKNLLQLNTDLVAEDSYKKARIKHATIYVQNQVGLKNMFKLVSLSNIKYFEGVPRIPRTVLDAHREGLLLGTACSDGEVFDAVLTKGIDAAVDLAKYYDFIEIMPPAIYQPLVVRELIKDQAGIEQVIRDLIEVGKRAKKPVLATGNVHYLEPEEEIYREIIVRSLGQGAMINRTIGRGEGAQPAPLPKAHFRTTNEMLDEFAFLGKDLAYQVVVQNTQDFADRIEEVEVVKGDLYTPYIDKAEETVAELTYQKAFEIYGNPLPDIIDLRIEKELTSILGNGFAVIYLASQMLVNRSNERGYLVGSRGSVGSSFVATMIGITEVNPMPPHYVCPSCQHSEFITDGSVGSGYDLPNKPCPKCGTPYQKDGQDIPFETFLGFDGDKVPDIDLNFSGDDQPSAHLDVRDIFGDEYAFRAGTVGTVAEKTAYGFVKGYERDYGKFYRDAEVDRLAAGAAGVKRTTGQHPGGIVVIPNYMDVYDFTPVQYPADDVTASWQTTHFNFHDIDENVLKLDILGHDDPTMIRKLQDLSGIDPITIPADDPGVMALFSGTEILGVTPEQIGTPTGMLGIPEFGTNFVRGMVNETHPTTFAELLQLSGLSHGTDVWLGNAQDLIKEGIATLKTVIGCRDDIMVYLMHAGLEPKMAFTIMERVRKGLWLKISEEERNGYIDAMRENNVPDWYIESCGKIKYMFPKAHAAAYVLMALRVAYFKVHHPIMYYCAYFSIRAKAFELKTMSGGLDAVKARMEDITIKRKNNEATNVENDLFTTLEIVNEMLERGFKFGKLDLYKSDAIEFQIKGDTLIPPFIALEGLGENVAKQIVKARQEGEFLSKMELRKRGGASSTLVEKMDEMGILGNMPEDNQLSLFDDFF
Chain of S. pyogenes DNA polymerase holoenzyme (PolC, tau-complex, β) (Q7DAL6 1-556 partner): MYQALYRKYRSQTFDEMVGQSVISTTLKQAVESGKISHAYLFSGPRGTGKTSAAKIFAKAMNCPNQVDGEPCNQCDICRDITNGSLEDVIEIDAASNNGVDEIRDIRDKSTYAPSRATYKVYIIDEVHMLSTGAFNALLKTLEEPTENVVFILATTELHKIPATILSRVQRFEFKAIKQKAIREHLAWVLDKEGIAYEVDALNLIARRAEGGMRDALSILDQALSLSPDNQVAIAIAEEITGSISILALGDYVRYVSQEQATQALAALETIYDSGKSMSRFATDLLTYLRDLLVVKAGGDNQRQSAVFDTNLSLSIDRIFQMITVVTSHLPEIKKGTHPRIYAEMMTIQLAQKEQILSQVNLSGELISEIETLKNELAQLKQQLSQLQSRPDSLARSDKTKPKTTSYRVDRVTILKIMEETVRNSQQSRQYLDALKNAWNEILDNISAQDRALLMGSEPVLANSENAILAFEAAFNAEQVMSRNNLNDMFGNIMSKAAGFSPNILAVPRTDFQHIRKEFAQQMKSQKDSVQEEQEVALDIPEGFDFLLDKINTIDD
Chain of S. pyogenes DNA polymerase holoenzyme (PolC, tau-complex, β) (Q7DAL5 1-346 partner): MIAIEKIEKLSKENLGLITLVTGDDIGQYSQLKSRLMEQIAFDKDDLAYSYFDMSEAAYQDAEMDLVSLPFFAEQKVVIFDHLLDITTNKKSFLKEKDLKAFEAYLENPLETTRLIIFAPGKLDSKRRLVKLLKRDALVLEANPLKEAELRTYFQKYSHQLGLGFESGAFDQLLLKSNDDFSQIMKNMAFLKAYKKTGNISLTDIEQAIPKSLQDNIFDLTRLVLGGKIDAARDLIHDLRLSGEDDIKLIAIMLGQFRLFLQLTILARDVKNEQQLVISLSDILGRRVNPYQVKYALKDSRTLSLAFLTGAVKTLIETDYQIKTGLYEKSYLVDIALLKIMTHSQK
Chain of S. pyogenes DNA polymerase holoenzyme (PolC, tau-complex, β) (Q9A209 1-378 partner): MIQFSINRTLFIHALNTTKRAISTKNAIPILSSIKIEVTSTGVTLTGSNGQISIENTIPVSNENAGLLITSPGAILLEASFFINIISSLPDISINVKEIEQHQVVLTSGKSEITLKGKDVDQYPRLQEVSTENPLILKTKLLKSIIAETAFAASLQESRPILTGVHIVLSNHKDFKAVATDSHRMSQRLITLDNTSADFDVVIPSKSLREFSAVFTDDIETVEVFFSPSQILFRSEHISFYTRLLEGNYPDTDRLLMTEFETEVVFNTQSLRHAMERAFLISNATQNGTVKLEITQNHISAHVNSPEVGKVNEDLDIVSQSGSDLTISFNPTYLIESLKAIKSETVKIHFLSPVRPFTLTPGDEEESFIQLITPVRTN

SMILES	IC50 [1] [µM]	IC50 [2] [µM]	IC50 [3] [µM]	IC50 [4] [µM]
C/N=C1\NC(=O)/C(=C/c2cc(Br)cc(Br)c2OC)S1	> 320	> 320		
CC(C)(C)c1ccc(Oc2ccc([N+](=O)[O-])cc2/C=C2\SC(=S)NC2=O)cc1	4.38	7.03		
COc1cccc(OC)c1/C=C1\SC(=S)NC1=O	> 320	186		
O=C1NC(=S)S/C1=C\c1cccc(C(F)(F)F)c1F	67.9	166		
O=C1NC(=S)S/C1=C\c1cc([N+](=O)[O-])ccc1Cl	81.6	88.9		
COc1ccc([N+](=O)[O-])cc1/C=C1\SC(=S)NC1=O	89	126		
O=C1NC(=S)S/C1=C\c1cc2c(cc1[N+](=O)[O-])OCO2	98.3	144		
CN(C)c1ccc(/C=C2\SC(=S)NC2=O)c([NH+]([O-])O)c1 (stereo not shown)	44.4	22.6		
COc1c(Br)cc(Br)cc1/C=C1\SC(=S)NC1=O	18.1	31.4		
O=C1NC(=S)S/C1=C\c1cc([N+](=O)[O-])ccc1N1CCCCC1	23.7	41.2		
COc1cc(/C=C2\SC(=S)NC2=O)c([N+](=O)[O-])cc1OC	> 320	> 320		
COc1ccc(/C=C2\SC(=S)NC2=O)cc1[N+](=O)[O-]	> 320	48.9		
O=C1NC(=S)S/C1=C\c1cc([N+](=O)[O-])ccc1SC1CCCCC1	8.73	9.94		
COc1ccc(F)c(/C=C2\SC(=S)NC2=O)c1	193	179		
O=C1NC(=S)S/C1=C\c1ccc(F)cc1F	288	315		
COc1cc(F)c(/C=C2\SC(=S)NC2=O)cc1OC	> 320	> 320		
O=C1NC(=S)S/C1=C\c1cc(Cl)ccc1[N+](=O)[O-]	163	267		
O=C1NC(=S)SC1=Cc1cc([N+](=O)[O-])ccc1Sc1ccc(Cl)cc1 [5-[2-(4-Chloro-phenylsulfanyl)-5-nitro-benzylidene]-2-thioxo-thiazolidin-4-one]			3 to 7	
O=C1NC(=S)S/C1=C\c1cccc(F)c1F	214	212		
COc1cccc(/C=C2\SC(=S)NC2=O)c1F	277	54.1		
CC(C)Oc1c(Br)cc(Br)cc1/C=C1\SC(=S)NC1=O	7.11	18.8		
O=C1NC(=S)S/C1=C\c1cc([N+](=O)[O-])ccc1N1CCOCC1	192	108		
O=C1NC(=S)S/C1=C\c1ccc(Cl)c(Cl)c1 [drawing 34]	37.2	61.6		
O=C1NC(=S)S/C1=C\c1cccc(Cl)c1F	79.9	123		

SMILES	IC50 [1] [µM]	IC50 [2] [µM]	IC50 [3] [µM]	IC50 [4] [µM]
O=C1NC(=S)S/C1=C\c1ccc([N+](=O)[O-])c(O)c1		162		
O=C1NC(=S)S/C1=C\c1cc([N+](=O)[O-])ccc1F	89.7	101		
O=C1NC(=S)S/C1=C\c1ccc(Br)cc1F	60	28.5		
C/N=C1\NC(=O)/C(=C/c2ccc(Cl)c(Cl)c2)S1	112	286		
O=C1NC(=S)S/C1=C\c1cc(Br)cc(Br)c1	14.2	22		
CCOc1c(Br)cc(Br)cc1/C=C1\SC(=S)NC1=O	13.5	22.3		
O=C1NC(=S)S/C1=C\c1cc(F)c(F)cc1F	121	203		
O=C1NC(=S)S/C1=C\c1cc(C(F)(F)F)ccc1F	45.1	108		
O=C1NC(=S)S/C1=C\c1ccc(Cl)cc1[N+](=O)[O-]	133	63.9		
Cc1cccc(C)c1/C=C1\SC(=S)NC1=O	271	302		
COc1cccc(F)c1/C=C1\SC(=S)NC1=O	> 320			195
O=C1NC(=S)S/C1=C\c1ccc(Cl)c(Cl)c1 [drawing 37]	> 320	> 320		
O=C1NC(=S)S/C1=C\c1cc([N+](=O)[O-])ccc1Sc1ccc(Cl)cc1	3.53	4.62		
O=C1NC(=S)S/C1=C\c1c(F)cccc1F	> 320	196		
O=C1NC(=S)S/C1=C\c1cc(Br)ccc1F	64.5	95.9		
N=C1NC(=O)/C(=C/c2ccc(Cl)c(Cl)c2)S1	145	116		
O=C1NC(=S)S/C1=C\c1cc(Br)cc(Br)c1O	> 320	> 320		
O=C1NC(=S)S/C1=C\c1cc(F)ccc1F	211			
O=C1NC(=S)S/C1=C\c1ccc(N2CCOCC2)c([N+](=O)[O-])c1	> 320	> 320		
O=C1NC(=S)S/C1=C\c1ccc(Cl)c([N+](=O)[O-])c1	24.2	27.2		
O=C1NC(=S)S/C1=C\c1ccc(F)c(F)c1	181	241		
O=C1NC(=S)S/C1=C\c1c(Cl)cccc1Cl	102	162		
O=C1NC(=S)S/C1=C\c1cc([N+](=O)[O-])ccc1OC(F)F	96	52.9		
